The text below walks through data of publication PMC12005787, “Synthetic Lethality of SHP2 and XIAP Suppresses Proliferation and Metastasis in KRAS‐mutant Nonsmall Cell Lung Cancer” (Advanced Science, 2025).

One data set deals with A549 cells. Nature of the data set: Cell viability assay (CCK-8). In kind it is cell-based. The note with it: Homo sapiens; A549, KRAS G12S, 24 h; read-out: IC50 at 24 h. As for the experimental part: (§1) supplies are listed in Supplementary Table S5. […]
(§2) KRAS-mutant and wild-type cells are listed in Supplementary Table S7.
(§3) For the adherent cell viability assay, cells in the logarithmic growth phase were seeded in 96-well culture plates at a density of 5×103 well-1 and incubated overnight. Diluted compounds or DMSO were added, or specific treatments were incubated at 37 °C and 5% CO2 for 24 h or 48 h. Cell viability was determined using CCK-8 or CellLightTM Cell Viability Assay Kit, according to the manufacturer's protocol. The luminescence signals of the treated samples were normalized to those of the DMSO group. […]

A further data set deals with NCI-H1975 cells. Nature of the data set: Cell viability assay (CCK-8). In kind it is cell-based. Conditions: Homo sapiens, NCI-H1975, 24 h, NCI-H1975, RAS-wild type, EGFR L858R/T790M. As for the experimental part: as §1, §2, §3
In the next data set the target is T1, XIAP (Homo sapiens, UniProt P98170).
T1 construct: endogenous in cells; host or cells: NCI-H2122
The experiment in a line: Cellular thermal shift assay (CETSA). The class given is binding. The note with it: 56 and 62 ℃. As for the experimental part: (§4) NCI‐H2122 cells were harvested and resuspended with pre‐cooled PBS containing 1% cocktail, which was then frozen in liquid nitrogen for 5 min and thawed in a water bath at 37 °C for 5 min for three repetitions. The supernatant was collected via centrifugation at 4 °C (15 000 × g, 20 min), divided into two equal portions; one was added with test drugs or various concentrations of embelin, and the other was added with DMSO as control and subsequently incubated at 25 °C for 30 min. All samples were heated at temperatures ranging from 52–70 °C for 3 min, and subsequently in an ice bath for 3 min and collected by centrifugation at 4 °C (15 000 × g, 20 min), and added with protein sampling buffer at 100 °C for 5 min, followed by analysis of protein stability using western blotting.

The test system of a further data set is A549 and NCI‐H2122 cells. The experiment in a line: Cell proliferation in monolayer culture (CCK-8). The class given is cell-based, human. As for the experimental part:
as §3
Figure S7. Targeting SHP2 and XIAP produces a synthetic lethal effect. (A) Effects of NSC-87877 on cell viability of A549 and NCI-H2122 cells after 24 and 48 h were determined using the CCK-8. Bars, ± SEM. The curves were plotted using a variable slope (four-parameter) non-linear fit. (B, E, F, and I) Effects of Na3VO4 (B), birinapant (E), BV-6 (F), and LCL161 (I) on cell viability of human NCI-H2122 cells at 48 h were determined using the CCK-8. *p < 0.05, **p < 0.01 and ***p < 0.001 compared to control group (unpaired two-tailed Student’s t-test).(C, G) Effects of SHP099 (C) and GDC-0152 (G) on cell viability after 24 and 48 h were determined using the CCK-8. Bars, ± SEM. The curves were plotted using a variable slope (four-parameter) non-linear fit.(D, H) Effects of SHP099 (D) and GDC-0152 (H) on cell viability were determined after 48 h using intracellular ATP chemiluminescence. **p < 0.01 and ***p < 0.001 compared to control group (unpaired two-tailed Student’s t-test).(J) Effects of SHP099 and GDC-0152 separately and in combination, and the effect of embelin for 24 h on the cell viability were assessed using intracellular ATP […]
tailed Student’s t-test).(K) Effects of SHP099 and GDC-0152 separately and in combination with […] on the cell viability of human KRAS-WT and -mutant cells were assessed using a colony formation assay. (L, M) A549 and NCI-H2122 cells were instantaneously transfected with siPTPN11 and siXIAP separately and together for 24 h under

Data set [1] has as its system NCI-H2122, A549, and NCI-H1944 cells. Nature of the data set: Cell senescence β-galactosidase staining. In kind it is cell-based, human. Conditions: NCI‐H2122 cells; candidate drugs 10 μM. The method, then: Cell senescence β-galactosidase staining
NCI-H2122, A549, and NCI-H1944 cells in the logarithmic growth phase were seeded into 48-well plates and cultured overnight. The supernatant was aspirated and fresh serum-free (0%), low-serum (3%), or regular serum (10%) medium with different drugs was added for 48 h. When the supernatant was discarded, β-galactosidase staining fixation fluid were added for 15 min and β-galactosidase staining solution were imported overnight at 37 ℃.
Finally, the staining results were recorded using an inverted microscope.

Another data set deals with T2, SHP2 (Homo sapiens, UniProt Q06124).
T2 construct: endogenous in cells; host or cells: NCI-H2122
T2 sequence (Q06124 1-593): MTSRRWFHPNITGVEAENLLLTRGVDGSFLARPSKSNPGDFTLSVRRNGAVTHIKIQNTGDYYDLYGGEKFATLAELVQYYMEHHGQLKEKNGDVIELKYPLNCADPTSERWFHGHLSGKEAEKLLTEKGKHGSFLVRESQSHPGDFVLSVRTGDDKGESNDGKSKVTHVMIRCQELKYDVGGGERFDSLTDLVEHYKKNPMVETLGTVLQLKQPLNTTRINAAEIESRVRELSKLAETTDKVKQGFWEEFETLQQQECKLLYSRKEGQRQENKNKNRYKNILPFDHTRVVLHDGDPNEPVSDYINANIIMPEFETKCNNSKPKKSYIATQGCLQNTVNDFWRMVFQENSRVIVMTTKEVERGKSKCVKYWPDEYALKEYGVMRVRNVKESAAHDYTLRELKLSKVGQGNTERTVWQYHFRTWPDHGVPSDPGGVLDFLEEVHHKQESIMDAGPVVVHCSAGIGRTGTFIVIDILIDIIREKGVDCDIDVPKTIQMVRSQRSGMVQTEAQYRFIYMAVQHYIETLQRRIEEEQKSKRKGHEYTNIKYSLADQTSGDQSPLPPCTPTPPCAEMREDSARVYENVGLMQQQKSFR
Nature of the data set: Cellular thermal shift assay (CETSA). The class given is binding. Conditions: NCI‐H2122 cell lysate. As for the experimental part:
as §4

Data set [2] deals with KRAS‐mutant NSCLC cells in 3D culture. The experiment in a line: Cell proliferation in 3D cell culture (ATP chemiluminescence). In kind it is cell-based. As for the experimental part:
as §1
For the adherent cell viability assay, cells in the logarithmic growth phase were seeded in 96-well culture plates at a density of 5×103 well-1 and incubated overnight. Diluted compounds or DMSO were added, or specific treatments were incubated at 37 °C and 5% CO2 for 24 h or 48 h. Cell viability was determined using CCK-8 or CellLightTM Cell Viability Assay Kit, according to the manufacturer's protocol. The luminescence signals of the treated samples were normalized to those of the DMSO group.
For spherical cell viability assays, cells in the logarithmic growth phase were inoculated ata density of 4×10^3 well-1 into 96-well spherical cell microplates and incubated at 37 °C, 5% CO2 for 24 h or 48 h. Cell viability was measured using the CellTiter-Glo® Luminescent Cell Viability 3D Cell Viability Assay Kit, according to the manufacturer’s protocol. The remaining steps were the same as those described above. […]
Figure S7. Targeting SHP2 and XIAP produces a synthetic lethal effect. (A) Effects of NSC-87877 on cell viability of A549 and NCI-H2122 cells after 24 and 48 h were determined using the CCK-8. Bars, ± SEM. […]
tailed Student’s t-test).(K) Effects of SHP099 and GDC-0152 separately and in combination with […] on the cell viability of human KRAS-WT and -mutant cells were assessed using a colony formation assay. […]

The subject of another data set is NCI‐H2122 tumor. Nature of the data set: NCI-H2122 subcutaneous transplantation tumor model. The class given is in vivo, BALB/c‐nu mouse. The note with it: i.p., q2d. The method, then:
NCI‐H2122 cells in the logarithmic growth phase were collected by mixing serum‐free RMPI‐1640 medium and Matrigel matrix gel, and injected subcutaneously into the right axilla of thymus‐less male BALB/c‐nu nude mice. Tumor volume was calculated according to V = ab^2/2 (where a and b are the long and short diameters of the tumor, respectively), and body weight was recorded every 3 days. When the tumor volume reached 100 mm^3, the mice were randomly divided into six groups (ten mice in each group): Control group (i.p, q2d), SHP099 (20 mg kg^−1, i.p, q2d) group, GDC‐0152 (20 mg kg^−1, i.p, q2d) group, SHP099 (20 mg kg^−1, i.p, q2d) + GDC‐ 0152 (20 mg kg^−1, i.p, q2d) co‐administration group, embelin (20 mg kg^−1, i.p, q2d) medium‐dose group and embelin (30 mg kg^−1, i.p, q2d) high‐dose group. When the tumor volume reached 1000 mm^3, all experimental mice were sacrificed, and tumor tissues and major organs, such as the heart, liver, spleen, lungs, and kidneys, were collected for further study.

T1 sequence (P98170 whole entry): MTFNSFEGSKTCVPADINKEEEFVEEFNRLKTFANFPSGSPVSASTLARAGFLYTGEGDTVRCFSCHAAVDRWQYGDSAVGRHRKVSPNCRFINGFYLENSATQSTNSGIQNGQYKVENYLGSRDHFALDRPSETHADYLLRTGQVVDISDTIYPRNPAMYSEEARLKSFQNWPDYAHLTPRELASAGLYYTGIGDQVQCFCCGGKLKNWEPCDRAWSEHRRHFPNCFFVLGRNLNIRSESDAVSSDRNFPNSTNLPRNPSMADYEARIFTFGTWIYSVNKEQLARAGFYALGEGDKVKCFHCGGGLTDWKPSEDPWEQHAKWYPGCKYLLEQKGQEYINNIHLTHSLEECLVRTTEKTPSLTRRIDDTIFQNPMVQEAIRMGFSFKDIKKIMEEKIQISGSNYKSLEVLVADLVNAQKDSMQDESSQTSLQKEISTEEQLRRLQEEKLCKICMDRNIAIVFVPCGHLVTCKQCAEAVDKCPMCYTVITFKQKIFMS

Turning to `C#Cc1cccc(Nc2ncnc3cc(OCCOC)c(OCCOC)cc23)c1` [erlotinib], the IC50 with A549 cells and in the data set with NCI-H1975 cells was above 100 µM each time.

Regarding `O=S(=O)(O)c1ccc2cc(N=Nc3cc(S(=O)(=O)O)c4cccnc4c3O)ccc2c1` [NSC‐87877], the “effect on XIAP protein stability (CETSA)” value at XIAP was “did not affect XIAP protein stability”. Moreover, the “effect on cell proliferation in monolayer cell culture mode” value (from here on “effect … in monolayer cell culture mode”) in the data set on A549 and NCI‐H2122 cells is listed as “almost no effect”.

On to `CN[C@@H](C)C(=O)N[C@H](C(=O)N1CCC[C@H]1C(=O)Nc1snnc1-c1ccccc1)C1CCCCC1` [GDC‐0152], for which the “induction of cell senescence” value in data set [1] was “induced cellular senescence”. The “effect on SHP2 protein stability (CETSA)” value at SHP2 is reported as “did not affect SHP2 protein stability”. Further, the “effect … in monolayer cell culture mode” value in the data set with A549 and NCI‐H2122 cells is reported as “almost no effect”. For the same molecule, the “effect on cell proliferation in 3D cell culture” value in data set [2] is given as “partially inhibited cell proliferation”. Moreover, in the data set with NCI‐H2122 tumor, the “effect on body weight of the mice” value was “little or no effect on the body weight”; the “effect on weights of hearts, livers, lungs, and kidneys and structure of hearts and kidneys” value was “no significant effect”.

`[Na+].[Na+].[Na+].[O]=[V]([O-])([O-])[O-]` [Na3VO4]: the “effect on XIAP protein stability (CETSA)” value at XIAP is “did not affect XIAP protein stability”. Further, the “effect … in monolayer cell culture mode” value in the data set on A549 and NCI‐H2122 cells is given as “almost no effect”.

With `CC[C@H](NC(=O)[C@H](C)NC)C(=O)N1C[C@@H](O)C[C@H]1Cc1c(-c2[nH]c3cc(F)ccc3c2C[C@@H]2C[C@H](O)CN2C(=O)[C@H](CC)NC(=O)[C@H](C)NC)[nH]c2cc(F)ccc12` [Birinapant], in data set [1], the “induction of cell senescence” value is on record as “induced cellular senescence”. Further, the “effect on SHP2 protein stability (CETSA)” value on SHP2 was “did not affect SHP2 protein stability”. For the same molecule, the “effect … in monolayer cell culture mode” value in the data set on A549 and NCI‐H2122 cells was “almost no effect”.

Usually IC50 stands for the midpoint of a concentration-inhibition curve.
